In patent US20250270209A1 (INTERLINE THERAPEUTICS, INC., priority 2022, published 2025) one finds IC50 data, which are given here for 5 compounds.

Experiment [1] addresses T1, wild type LRRK2 overexpressed in recombinant HEK-293T cells (Homo sapiens, UniProt Q5S007).
T1 construct: host or cells: HEK293T (transient transfection with pCMV-LRRK2 WT plasmid)
As to the kind of experiment: pS935 LRRK2 Cell Assay (HTRF, phospho-LRRK2 Ser935). The format is cell-based. To be noted: LRRK2 Inhibition, Table 8, 2 hours compound incubation. The essentials: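 Phospho-Ser935 LRRK2 measured by two-antibody HTRF (Eu-cryptate donor, d2 acceptor; 665/615 nm ratio) after overnight detection at 23° C. Before lysis, transiently LRRK2-transfected HEK-293T cells were exposed 2 h at 37° C to a 9-point, 3-fold series from 10 μM, with DMSO at 0.2%.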
A general note: TR-FRET usually uses a lanthanide donor and a delayed reading to cut background.

In a further experiment the target is LRRK2 wild type enzyme (Homo sapiens, UniProt Q5S007). The experiment can be described thus: Biochemical Assay: LRRK2 TR-FRET (LanthaScreen) kinase assay with LRRKtide substrate. The note with it: LRRK2 Inhibition, Table 8. The essentials: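 TR-FRET detection (Tb-labelled phospho-LRRKtide antibody, EDTA stop, 30 min) followed a 120 min, 23 °C reaction of 3 nM wild-type human LRRK2 with LRRKtide (400 nM) and ATP (25 μM) in Tris pH 8.0. Compounds: 11-point 3-fold series from 10 μM, 15 min enzyme preincubation.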
LRRK2 wild type enzyme, sequence (Q5S007 whole entry): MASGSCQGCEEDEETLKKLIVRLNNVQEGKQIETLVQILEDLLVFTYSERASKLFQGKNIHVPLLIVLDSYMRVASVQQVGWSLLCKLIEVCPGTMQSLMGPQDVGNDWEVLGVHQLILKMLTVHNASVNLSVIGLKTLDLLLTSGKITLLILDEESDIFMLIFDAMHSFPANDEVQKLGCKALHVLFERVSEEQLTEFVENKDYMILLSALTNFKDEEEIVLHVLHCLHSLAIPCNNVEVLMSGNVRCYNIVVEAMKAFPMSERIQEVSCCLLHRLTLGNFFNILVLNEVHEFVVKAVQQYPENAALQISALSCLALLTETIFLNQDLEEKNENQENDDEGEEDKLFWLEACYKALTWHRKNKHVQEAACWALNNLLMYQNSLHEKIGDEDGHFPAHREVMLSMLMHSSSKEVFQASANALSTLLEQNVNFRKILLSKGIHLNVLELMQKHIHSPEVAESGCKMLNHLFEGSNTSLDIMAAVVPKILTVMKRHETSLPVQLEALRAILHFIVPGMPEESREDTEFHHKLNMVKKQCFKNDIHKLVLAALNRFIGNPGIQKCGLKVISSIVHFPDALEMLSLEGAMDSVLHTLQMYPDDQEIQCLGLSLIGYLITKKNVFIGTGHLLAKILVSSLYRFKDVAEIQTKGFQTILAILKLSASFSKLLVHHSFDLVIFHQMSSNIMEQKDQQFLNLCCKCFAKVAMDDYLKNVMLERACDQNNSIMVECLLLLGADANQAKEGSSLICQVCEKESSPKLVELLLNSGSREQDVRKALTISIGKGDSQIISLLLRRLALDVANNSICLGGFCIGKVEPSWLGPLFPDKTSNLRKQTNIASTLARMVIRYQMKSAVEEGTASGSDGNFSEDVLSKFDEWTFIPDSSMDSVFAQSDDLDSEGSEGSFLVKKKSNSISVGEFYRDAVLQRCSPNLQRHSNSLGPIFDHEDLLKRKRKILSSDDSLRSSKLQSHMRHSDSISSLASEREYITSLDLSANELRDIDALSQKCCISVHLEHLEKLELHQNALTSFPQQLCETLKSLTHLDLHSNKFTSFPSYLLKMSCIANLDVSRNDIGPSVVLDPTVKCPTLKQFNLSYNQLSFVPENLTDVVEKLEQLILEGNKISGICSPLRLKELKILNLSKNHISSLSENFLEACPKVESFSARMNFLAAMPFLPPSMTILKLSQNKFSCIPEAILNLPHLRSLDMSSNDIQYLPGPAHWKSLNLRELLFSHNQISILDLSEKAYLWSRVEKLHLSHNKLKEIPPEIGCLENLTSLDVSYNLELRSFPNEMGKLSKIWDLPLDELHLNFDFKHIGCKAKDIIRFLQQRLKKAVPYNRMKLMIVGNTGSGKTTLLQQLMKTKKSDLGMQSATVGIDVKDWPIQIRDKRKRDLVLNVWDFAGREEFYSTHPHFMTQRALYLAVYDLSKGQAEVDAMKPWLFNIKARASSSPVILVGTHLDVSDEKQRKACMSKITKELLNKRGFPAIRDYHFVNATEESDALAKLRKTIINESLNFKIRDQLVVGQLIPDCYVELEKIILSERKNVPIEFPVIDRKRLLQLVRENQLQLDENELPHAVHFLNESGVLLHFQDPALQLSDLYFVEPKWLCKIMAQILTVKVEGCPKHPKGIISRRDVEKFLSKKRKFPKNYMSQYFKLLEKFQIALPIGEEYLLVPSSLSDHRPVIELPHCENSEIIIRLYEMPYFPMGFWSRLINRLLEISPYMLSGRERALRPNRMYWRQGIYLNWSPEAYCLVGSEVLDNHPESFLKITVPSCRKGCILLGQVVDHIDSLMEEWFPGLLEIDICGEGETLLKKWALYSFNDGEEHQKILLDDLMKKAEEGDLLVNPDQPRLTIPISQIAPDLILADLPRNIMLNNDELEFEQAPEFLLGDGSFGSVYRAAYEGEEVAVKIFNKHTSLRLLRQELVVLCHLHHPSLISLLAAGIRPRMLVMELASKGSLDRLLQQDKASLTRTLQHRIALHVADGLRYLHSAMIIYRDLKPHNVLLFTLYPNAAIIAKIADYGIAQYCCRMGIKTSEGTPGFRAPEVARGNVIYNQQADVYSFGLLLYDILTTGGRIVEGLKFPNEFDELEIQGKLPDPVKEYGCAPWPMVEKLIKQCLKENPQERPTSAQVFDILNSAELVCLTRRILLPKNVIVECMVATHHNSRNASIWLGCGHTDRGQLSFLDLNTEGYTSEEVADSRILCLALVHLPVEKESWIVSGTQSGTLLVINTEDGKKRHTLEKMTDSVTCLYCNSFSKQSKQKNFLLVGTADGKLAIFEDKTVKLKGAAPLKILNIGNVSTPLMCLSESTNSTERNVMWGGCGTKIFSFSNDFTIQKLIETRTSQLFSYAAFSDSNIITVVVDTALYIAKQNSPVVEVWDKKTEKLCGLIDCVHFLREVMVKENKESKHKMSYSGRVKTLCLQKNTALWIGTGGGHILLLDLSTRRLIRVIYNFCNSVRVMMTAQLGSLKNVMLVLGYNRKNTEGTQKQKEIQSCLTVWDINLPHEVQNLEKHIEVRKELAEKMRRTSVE

T1 sequence (Q5S007 whole entry): as above

The IC50 is the concentration that inhibits the measured activity by half. For `C[C@@H]1C[C@H](n2c(CC(=O)Nc3cccnc3Cl)nc3cnc4ccc(C#N)cc4c32)CCO1` [Compound 324, N-(2-chloro-3-pyridyl){3-[(2R,4R)-2-methyltetrahydro-2H-pyran-4-yl]-12-cyano-3,5,8-triazatricyclo[7.4.0.0^2,6]trideca-1(9),2(6),4,7,10,12-hexaen-4-yl}acetamide], the figures for the IC50 (in experiment [1]; on LRRK2 wild type enzyme) were 3.16 nM and 0.536 nM, respectively.
For the compound `C[C@@H]1C[C@H](n2c(CC(=O)N[C@H]3CCOC3)nc3cnc4ccc(Cl)cc4c32)CCO1` [Compound 147, 2-{8-chloro-1-[(2R,4R)-2-methyloxan-4-yl]-1H-imidazo[4,5-c]quinolin-2-yl}-N-[(3S)-oxolan-3-yl]acetamide], the concentration for half-maximal inhibition (IC50) in experiment [1] stood at 10 nM; at LRRK2 wild type enzyme, 0.386 nM.
Take `C[C@@H]1C[C@H](n2c(CC(=O)NCCO)nc3cnc4ccc(Cl)cc4c32)CCO1` [Compound 163, 2-{8-chloro-1-[(2R,4R)-2-methyloxan-4-yl]-1H-imidazo[4,5-c]quinolin-2-yl}-N-(2-hydroxyethyl)acetamide]: the concentration for half-maximal inhibition (IC50) in experiment [1] amounted to 43.8 nM; at LRRK2 wild type enzyme, 0.676 nM.
`Cc1ncccc1NC(=O)Cc1nc2cnc3ccc(C#N)cc3c2n1[C@@H]1CCO[C@H](C)C1` [Compound 316, N-(2-methyl-3-pyridyl){3-[(2R,4R)-2-methyltetrahydro-2H-pyran-4-yl]-12-cyano-3,5,8-triazatricyclo[7.4.0.0^2,6]trideca-1(9),2(6),4,7,10,12-hexaen-4-yl}acetamide]: the half-inhibitory concentration (IC50) in experiment [1] came out at 6.81 nM; against LRRK2 wild type enzyme it was 0.527 nM.
With `C[C@@H]1C[C@H](n2c(CC(=O)Nc3cc(C4CCC4)no3)nc3cnc4ccc(C#N)cc4c32)CCO1` [Compound 340, N-(3-cyclobutyl-5-isoxazolyl){3-[(2R,4R)-2-methyltetrahydro-2H-pyran-4-yl]-12-cyano-3,5,8-triazatricyclo[7.4.0.0^2,6]trideca-1(9),2(6),4,7,10,12-hexaen-4-yl}acetamide], the values for the 50% inhibitory concentration (IC50) (in experiment [1]; against LRRK2 wild type enzyme) were 15.7 nM and 1.53 nM, respectively.
